Results as given in paper PMC8022858, “Discovery of bone morphogenetic protein 7-derived peptide sequences that attenuate the human osteoarthritic chondrocyte phenotype” (Molecular Therapy. Methods & Clinical Development, 2021).

What was measured:
[1] = tested on: rat MMT model; assay: Rat medial meniscal tear (MMT) model, histopathological scoring of knee joints; type: in vivo; conditions: for histology of medial tibia plateau (toluidine blue), cartilage-degenerative changes: 100 ng in 50 μL saline intra-articular, two times per week from 1 week post-surgery, 10 rats per group (Figure 7A); for total joint score: versus saline (Figure 7E)
Experimental: We next tested whether peptide p[63−82] has the potency to delay the progression of trauma-induced cartilage degeneration in the rat MMT model.[34]^,[35] MMT damage was unilaterally initiated. Starting at 1 week post-MMT surgery, rats were two times per week intra-articularly injected with saline, 100 ng peptide p[63−82] in saline, or 100 ng scrambled peptide p[63−82] in saline. At 4 weeks post-MMT surgery, rats were sacrificed for histopathological scoring of the MMT knee joints. […] However, cartilage-degenerative changes were less apparent in the p[63−82] group (Figure 7A, middle panel). […] The femoral compartment also developed cartilage degeneration but less pronounced. This compartment is also more variable in its degenerative changes.[35] […] Cartilage-degeneration scores in zones 2 and 3 were generally low, as is known for the rat MMT model.[35] […] Other scored histopathological items can be found in Figure S5.
Figure 7 BMP7-derived peptide p[63−82] in rat MMT model The potency of BMP7 peptide p[63−82] to delay the progression of trauma-induced cartilage degeneration was tested in the rat MMT model. 1 week post-MMT-surgery, rats were two times per week intra-articularly injected with saline, 100 ng peptide p[63−82] in saline, or 100 ng scrambled peptide p[63−82] in saline (10 rats per group). All injection volumes were 50 μL. At 4 weeks post-MMT surgery, rats were sacrificed for histopathological scoring of the MMT knee joints. (A) Representative micrographs of toluidine blue-stained sections of medial aspects of the MMT knee joints. Conditions are indicated. (B) Medial tibia cartilage-degeneration scores. (C) Medial femur cartilage-degeneration scores. (D) Medial tibia cartilage-degeneration depth ratios. Scores and ratios are shown for zones 1, 2, and 3 individually.[35] The total scores/ratio are cumulative for zone 1, 2, and 3. (E) Total joint scores. Individual data points represent individual rats. Error bars represent mean ± SEM. Statistical differences were calculated between groups (Mann-Whitney U test), and ∗p < 0.05, ∗∗p < 0.01, and ∗∗∗p < 0.001.
The study was conducted via a contract research project at Bolder BioPATH (Boulder, CO, USA); study designs and animal usage were approved by their Institutional Animal Care and Use Committee (IACUC) prior to study initiation (IACUC protocols BBP13-029 and BBP12-004). Animal care, including room, cage, and equipment sanitation, conformed to accepted guidelines cited in the Guide for the Care and Use of Laboratory Animals (the Guide; 2011) and the applicable Bolder BioPATH standard operating procedures (SOPs). Male Lewis rats (n = 48; ∼283 g; Envigo RMS, Indianapolis, IN, USA) underwent a unilateral MMT on study day 0, as established earlier by Bendele et al.[59]^,[60] Rats were intra-articularly injected on days 7, 10, 14, 17, 21, and 24 with saline (0.9% NaCl, 50 μL/injection/animal), peptide p[63−82] (100 ng [in 50 μL saline]/injection/animal), or scrambled peptide p[63−82] (100 ng [in 50 μL saline]/injection/animal). The animals were euthanized for necropsy 28 days post-surgery.[59]^,[60] Right (surgery) knees from all animals were collected, trimmed of muscle (patella removed), and placed in 10% neutral-buffered formalin and then transferred to 70% ethanol for processing for microscopy. Operated joints were cut into two approximately equal halves in the frontal plane and embedded in paraffin. One section was cut from each knee and stained with toluidine blue. The worst-case scenario for the two halves on each slide was determined and used for evaluation. The tissues were analyzed microscopically by a veterinary pathologist as described earlier[35] (Tables S4–S13).

[2] = tested on: OA-HACs; assay: ALP activity assay in OA-HAC cultures; type: cell-based, human; conditions: three individual OA-HAC donors, 100 nM peptide, 24 h, normalized to total protein (Figure 2E)
Experimental: Figure 2 Bioactivity of BMP7-derived peptides p[63−82] and p[113−132] on OA-HACs Complete peptide library screening quantitative real-time PCR dataset for peptides p[63−82] and p[113−132] is presented. (A) SOX9, COL2A1, and NKX3-2 mRNA expression in the 18 OA-HAC pool exposed to 1,000, 100, 10, or 1 nM of peptide p[63−82] and p[113−132] is shown and presented relative to control (black bars) and alongside full-length BMP7 (white bars). (B) Similar to (A) but for chondrocyte hypertrophy-associated genes RUNX2, COL10A1, and ALPL. (C) Similar to (A) but for cartilage extracellular matrix remodeling-associated genes MMP13 and ADAMTS5 and inflammation-related genes COX-2 and IL-6. […] (G) In the same OA-HAC pool of 18 OA-HAC donors from the peptide library screening, sequence dependency of peptides p[63−82] and p[113−132] was determined by exposing the OA-HAC pool to scrambled versions of peptides p[63−82] and p[113−132] […] Error bars represent mean ± SEM, and statistical significance for peptide conditions or BMP7 versus control condition as determined by unpaired two-tailed Student’s t test is represented as ∗p < 0.05, ∗∗p < 0.01, and ∗∗∗p < 0.001.
Cells were lysed in 1.5 M Tris-HCl (pH 9.0) and 2% (v/v) Triton X-100 and homogenized by sonication (Soniprep 150 MSE). […] Total protein concentration was determined by a BCA assay. […]

[3] = 100 ng intra-articular two times per week, 4 weeks (Figure 7D)
[4] = 100 ng intra-articular two times per week, 4 weeks (Figures 7B, 7C)
[5] = 100 ng intra-articular two times per week, 4 weeks

Substance	histology of medial tibia plateau (toluidine blue), cartilage-degenerative changes ([1]; 4 weeks)	medial femur cartilage-degeneration score, zone 1, versus saline ([1]; 100 ng intra-articular two times per week, 4 weeks (Figure 7C))	depth ratio of tibia cartilage degeneration, zone 1, versus saline [1, 3]	total depth ratio score of tibia cartilage degeneration, versus saline [1, 3]	cartilage-degeneration scores, p[63-82] versus scrambled p[63-82] [1, 4]	combined (total) tibia and femur cartilage-degeneration scores, versus saline [1, 4]	medial tibia cartilage-degeneration score, zone 1, versus saline ([1]; 100 ng intra-articular two times per week, 4 weeks, Mann-Whitney U test (Figure 7B))	total joint score [1, 5]	total joint score ([1]; 100 ng intra-articular two times per week, 4 weeks, listed as p[62−83])	alkaline phosphatase (ALP) activity [2]	cartilage-degeneration scores of tibia or femur in any of the 3 zones, versus saline [1, 4]
H-AAYYSEGESAFPLNSYMNAT-OH [p[63−82]]	less apparent	trend toward a statistically significant lower	significantly lower	significantly lower	did not reveal differences that were statistically significant	significantly lower	significantly lower	significantly lower	significantly improve	significant decrease	–
H-SEASPAMYYLNATANFYESG-OH [scrambled p[63−82], scrambled version of peptide p[63−82], reference compound]	diminished toluidine blue staining and lower chondrocyte cellularity at the lateral side of the medial tibia plateau, as well as cartilage degeneration	–	–	–	–	Neither was there a significant difference	–	in between the values for saline and p[63−82] peptide but was not statistically different compared to either one of the saline or p[63−82] conditions	–	–	no statistically significant differences
H-SVLYFDDSSNVILKKYRNMV-OH [p[113−132]]	–	–	–	–	–	–	–	–	–	significant decrease	–
